Results as given in publication PMC5820170 (Molecular cancer therapeutics, 2015).

Biological target: Mammalian Ste20-like kinase 4 (MST4) (Homo sapiens, UniProt Q9P289)
Format: biochemical

Chain of Mammalian Ste20-like kinase 4 (MST4) (Q9P289 whole entry): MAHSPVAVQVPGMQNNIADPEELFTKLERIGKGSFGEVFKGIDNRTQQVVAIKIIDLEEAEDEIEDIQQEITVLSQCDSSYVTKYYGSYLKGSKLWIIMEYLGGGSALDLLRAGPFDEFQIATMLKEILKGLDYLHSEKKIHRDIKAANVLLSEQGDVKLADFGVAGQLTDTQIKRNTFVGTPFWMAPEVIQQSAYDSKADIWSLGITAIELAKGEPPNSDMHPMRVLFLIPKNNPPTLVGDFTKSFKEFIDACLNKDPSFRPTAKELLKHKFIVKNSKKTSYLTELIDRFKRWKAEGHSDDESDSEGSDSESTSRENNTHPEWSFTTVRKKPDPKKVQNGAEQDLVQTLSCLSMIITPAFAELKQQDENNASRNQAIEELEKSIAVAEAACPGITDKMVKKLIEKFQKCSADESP

- IC50: 6.18 ± 2.2 nM
SMILES: CCS(=O)(=O)Nc1ccc2c(c1)/C(=C(/Nc1ccc(CN3CCCCC3)cc1)c1ccccc1)C(=O)N2 [Hesperadin]
